Laboratory results taken from patent publication US20260217697A1, “COMPOUNDS COMPRISING HETEROARYL RINGS AND COMPOSITIONS AND METHODS THEREOF” (lonGen Therapeutics Co., Ltd., priority 2022, published 2026).

These compounds were tested against T1, hTRPV3 (Homo sapiens, UniProt Q8NET8) (assay: Whole-cell patch-clamp recording of hTRPV3 current in transfected HEK293T cells (2-APB induced)). Settings: current induced by 300 μM 2-APB, compounds tested up to 10 μM, room temperature.
T1 construct: The commercially available plasmid with the full-length cDNA of hTRPV3 (791 aa) (NM_001258205.2); host or cells: HEK293T
T1 sequence (Q8NET8 1-791 isoform Q8NET8-2): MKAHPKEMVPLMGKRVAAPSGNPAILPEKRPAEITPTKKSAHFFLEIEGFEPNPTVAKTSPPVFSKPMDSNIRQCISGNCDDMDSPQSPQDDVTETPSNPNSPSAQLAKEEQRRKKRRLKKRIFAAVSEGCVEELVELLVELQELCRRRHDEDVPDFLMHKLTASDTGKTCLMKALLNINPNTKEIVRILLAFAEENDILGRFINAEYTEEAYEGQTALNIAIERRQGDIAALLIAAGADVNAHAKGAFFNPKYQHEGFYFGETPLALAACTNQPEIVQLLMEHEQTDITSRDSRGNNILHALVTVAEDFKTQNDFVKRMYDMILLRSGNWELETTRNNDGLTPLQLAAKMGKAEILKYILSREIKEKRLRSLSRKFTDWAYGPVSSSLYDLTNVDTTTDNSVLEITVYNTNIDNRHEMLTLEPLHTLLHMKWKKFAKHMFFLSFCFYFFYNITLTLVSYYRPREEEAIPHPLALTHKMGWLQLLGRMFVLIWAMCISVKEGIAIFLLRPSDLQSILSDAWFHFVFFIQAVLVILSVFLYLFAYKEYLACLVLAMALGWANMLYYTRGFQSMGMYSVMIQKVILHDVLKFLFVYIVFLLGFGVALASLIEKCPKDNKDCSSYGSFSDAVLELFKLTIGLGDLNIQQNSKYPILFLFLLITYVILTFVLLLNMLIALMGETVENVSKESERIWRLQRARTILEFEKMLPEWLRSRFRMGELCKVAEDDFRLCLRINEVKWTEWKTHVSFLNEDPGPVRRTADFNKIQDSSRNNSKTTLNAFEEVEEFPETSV
Type: cell-based
Description: Various technologies can be utilized to assess TRPV3 activation in accordance with the present disclosure. For example, in some embodiments, compounds are assessed in in vitro patch clamp experiments. Certain useful procedures are described herein as examples.
In some embodiments, whole-cell patch-clamp recordings were used to detect the current through hTRPV3 channels in the HEK293T cell line transfected with hTRPV3 cDNA and evaluate the exact blocking effect of compounds on hTRPV3. In some embodiments, a perfusion system was adopted to control the extracellular solution, including the addition of the agonist and different antagonists.
HEK293T cells were cultured in a Dulbecco's modified Eagle's medium containing 10% fetal bovine serum (Thermo Scientific) and 1% penicillin/streptomycin (Thermo Scientific) at 37° C. with 5% CO2. The commercially available plasmid with the full-length cDNA of hTRPV3 (791 aa) (NM_001258205.2) was purchased from OriGene Technologies. The transfection of hTRPV3 plasmids was conducted using Lipofectamine™ 3000 following the manufacturer's instructions (Invitrogen).
Whole-cell patch-clamp experiments were performed 18 h post-transfection, using a MultiClamp 700B amplifier driven by pClamp 11 software (Molecular Devices). In order to achieve good single-cell physical separation, HEK293T cells with hTRPV3 expression were digested and then re-plated at low density on glass coverslips. Electrodes were pulled from borosilicate glass with a P-97 micropipette puller (Sutter Instruments) and those with resistances of 3-5 MΩ are used for experiments. In some embodiments, an Ag—AgCl wire was used as a reference electrode and signals are filtered using a 2.9 kHz low-pass Bessel filter. Membrane potential was held at 0 mV. For recording of agonist-induced activation and inhibition by different test compounds, currents were elicited by a protocol consisting of a 400-ms step to +80 mV, followed by a 400-ms step to −80 mV at 2-s intervals. both pipette and bath solutions contained 130 mM NaCl, 0.3 mM EDTA, and 3 mM HEPES (buffered to pH 7.4 with NaOH). All recordings were made at room temperature.
All patch-clamp recordings were analyzed using the Clampfit software and GraphPad Prism 6.0 software. Specifically, data are analyzed by calculating the degree of current amplitude after the test compound addition compared with the unblocked agonist-induced current amplitude. The resulting blocking percentage at each concentration was used to make a concentration-response analysis and fitted to the Hill equation: blocking percentage=minimum blocking percentage+ (maximum blocking percentage-minimum blocking percentage)/(1+10^(Hill slope* […])). The minimum blocking percentage is 0% and maximum blocking percentage is 100%, while the Hill slope and the IC50 were determined as the curve fitting routine. Compounds of interest were tested against hTRPV3 at concentrations up to 10 μM, and certain data was used to estimate IC50 as described herein.

Row | SMILES | IC50
1 | COc1ncnc(OC)c1C(=O)Nc1nc2c(s1)COc1cc(C(F)(F)F)ccc1-2 [compound 1, 4,6-dimethoxy-N-(7-(trifluoromethyl)-4H-chromeno[4,3-d]thiazol-2-yl)pyrimidine-5-carboxamide] | 100 to 1000 nM
2 | COc1ncnc(OC)c1C(=O)Nc1nc2c(s1)CCc1ccccc1-2 [compound 2, N-(4,5-dihydronaphtho[1,2-d]thiazol-2-yl)-4,6-dimethoxypyrimidine-5-carboxamide] | ≥ 10000 nM
3 | COc1ncnc(OC)c1C(=O)Nc1nc2c(s1)CCc1ccc(Cl)cc1-2 [compound 3, N-(8-chloro-4,5-dihydronaphtho[1,2-d]thiazol-2-yl)-4,6-dimethoxypyrimidine-5-carboxamide] | 1000 to 10000 nM
4 | COc1ncnc(OC)c1C(=O)Nc1nc2c(s1)CCCc1ccccc1-2 [compound 4, N-(5,6-dihydro-4H-benzo[6,7]cyclohepta[1,2-d]thiazol-2-yl)-4,6-dimethoxypyrimidine-5-carboxamide] | ≥ 10000 nM
5 | COc1ncnc(OC)c1C(=O)Nc1nc2c(s1)CSc1ccc(Cl)cc1-2 [compound 5, N-(8-chloro-4H-thiochromeno[4,3-d]thiazol-2-yl)-4,6-dimethoxypyrimidine-5-carboxamide] | ≥ 10000 nM
6 | COc1ncnc(OC)c1C(=O)Nc1nc2c(s1)COc1cc(Br)ccc1-2 [compound 6, N-(7-bromo-4H-chromeno[4,3-d]thiazol-2-yl)-4,6-dimethoxypyrimidine-5-carboxamide] | ≥ 10000 nM
7 | COc1ncnc(OC)c1C(=O)Nc1nc2c(s1)Cc1ccc(Cl)cc1-2 [compound 7, N-(5-chloro-8H-indeno[1,2-d]thiazol-2-yl)-4,6-dimethoxypyrimidine-5-carboxamide] | 1000 to 10000 nM
8 | COc1ncnc(OC)c1C(=O)Nc1nc2c(s1)C(C)(C)Oc1cc(C(F)(F)F)ccc1-2 [compound 8, N-(4,4-dimethyl-7-(trifluoromethyl)-4H-chromeno[4,3-d]thiazol-2-yl)-4,6-dimethoxypyrimidine-5-carboxamide] | 100 to 1000 nM
9 | COc1ncnc(OC)c1C(=O)Nc1nc2c(s1)c(=O)oc1cc(C(F)(F)F)ccc12 [compound 9, 4,6-dimethoxy-N-(4-oxo-7-(trifluoromethyl)-4H-chromeno[4,3-d]thiazol-2-yl)pyrimidine-5-carboxamide] | ≥ 10000 nM
10 | COc1ncnc(OC)c1C(=O)Nc1nc2c(s1)COc1cc(F)ccc1-2 [compound 10, N-(7-fluoro-4H-chromeno[4,3-d]thiazol-2-yl)-4,6-dimethoxypyrimidine-5-carboxamide] | ≥ 10000 nM
11 | COc1ccc2c(c1)OCc1sc(NC(=O)c3c(OC)ncnc3OC)nc1-2 [compound 11, 4,6-dimethoxy-N-(7-methoxy-4H-chromeno[4,3-d]thiazol-2-yl)pyrimidine-5-carboxamide] | ≥ 10000 nM
12 | COc1ncnc(OC)c1C(=O)Nc1nc2c(s1)C1(CCCN(C(=O)OC(C)(C)C)C1)Oc1cc(C(F)(F)F)ccc1-2 (stereo not shown) [compound 12, tert-butyl 2-(4,6-dimethoxypyrimidine-5-carboxamido)-7-(trifluoromethyl)spiro[chromeno[4,3-d]thiazole-4,3′-piperidine]-1′-carboxylate] | 100 to 1000 nM
13 | COc1ncnc(OC)c1C(=O)Nc1nc2c(s1)C1(CCCCC1)Oc1cc(C(F)(F)F)ccc1-2 [compound 13, 4,6-dimethoxy-N-(7-(trifluoromethyl)spiro[chromeno[4,3-d]thiazole-4,1′-cyclohexan]-2-yl)pyrimidine-5-carboxamide] | < 100 nM
14 | COc1ncnc(OC)c1C(=O)Nc1nc2c(s1)COc1cc(OC(=O)C(C)(C)C)ccc1-2 [compound 14, 2-(4,6-dimethoxypyrimidine-5-carboxamido)-4H-chromeno[4,3-d]thiazol-7-yl pivalate] | 1000 to 10000 nM
15 | COc1ncnc(OC)c1C(=O)Nc1nc2c(s1)COc1c-2cccc1C(F)(F)F [compound 15, 4,6-dimethoxy-N-(6-(trifluoromethyl)-4H-chromeno[4,3-d]thiazol-2-yl)pyrimidine-5-carboxamide] | ≥ 10000 nM
16 | COc1ncnc(OC)c1C(=O)Nc1nc2c(s1)COc1ccc(C)cc1-2 [compound 16, 4,6-dimethoxy-N-(8-methyl-4H-chromeno[4,3-d]thiazol-2-yl)pyrimidine-5-carboxamide] | ≥ 10000 nM
17 | COc1ccc2c(c1)-c1nc(NC(=O)c3c(OC)ncnc3OC)sc1CO2 [compound 17, 4,6-dimethoxy-N-(8-methoxy-4H-chromeno[4,3-d]thiazol-2-yl)pyrimidine-5-carboxamide] | ≥ 10000 nM
18 | COc1ncnc(OC)c1C(=O)Nc1nc2c(s1)C1(CCC(C(C)(C)C)CC1)Oc1cc(C(F)(F)F)ccc1-2 (stereo not shown) [compound 18, N-(4′-(tert-butyl)-7-(trifluoromethyl)spiro[chromeno[4,3-d]thiazole-4,1′-cyclohexan]-2-yl)-4,6-dimethoxypyrimidine-5-carboxamide] | 1000 to 10000 nM
19 | COc1ncnc(OC)c1C(=O)NC1=NC2c3ccc(C(F)(F)F)cc3OC3(CCC3)C2S1 (stereo not shown) [compound 19, 4,6-dimethoxy-N-(7-(trifluoromethyl)-3a,9b-dihydrospiro[chromeno[4,3-d]thiazole-4,1′-cyclobutan]-2-yl)pyrimidine-5-carboxamide] | 100 to 1000 nM
20 | COc1ncnc(OC)c1C(=O)Nc1nc2c(s1)C1(Oc3cc(C(F)(F)F)ccc3-2)C2CC3CC(C2)CC1C3 (stereo not shown) [compound 20, 4,6-dimethoxy-N-(7′-(trifluoromethyl)spiro[adamantane-2,4′-chromeno[4,3-d]thiazol]-2′-yl)pyrimidine-5-carboxamide] | 100 to 1000 nM
21 | COc1ncnc(OC)c1C(=O)Nc1nc2c(s1)C1(CCOC1)Oc1cc(C(F)(F)F)ccc1-2 (stereo not shown) [compound 21, 4,6-dimethoxy-N-(7-(trifluoromethyl)-4′,5′-dihydro-2′H-spiro[chromeno[4,3-d]thiazole-4,3′-furan]-2-yl)pyrimidine-5-carboxamide] | 100 to 1000 nM
22 | COc1ncnc(OC)c1C(=O)Nc1nc2c(s1)CCc1cc(C(F)(F)F)ccc1-2 [compound 22, 4,6-dimethoxy-N-(7-(trifluoromethyl)-4,5-dihydronaphtho[1,2-d]thiazol-2-yl)pyrimidine-5-carboxamide] | ≥ 10000 nM
23 | COc1ncnc(OC)c1C(=O)Nc1nc2c(s1)C1(CCCC1)Oc1cc(C(F)(F)F)ccc1-2 [compound 23, 4,6-dimethoxy-N-(7-(trifluoromethyl)spiro[chromeno[4,3-d]thiazole-4,1′-cyclopentan]-2-yl)pyrimidine-5-carboxamide] | 100 to 1000 nM
24 | CCC1(CC)Oc2cc(C(F)(F)F)ccc2-c2nc(NC(=O)c3c(OC)ncnc3OC)sc21 [compound 24, N-(4,4-diethyl-7-(trifluoromethyl)-4H-chromeno[4,3-d]thiazol-2-yl)-4,6-dimethoxypyrimidine-5-carboxamide] | < 100 nM
25 | COc1ncnc(OC)c1C(=O)Nc1nc2c(s1)C(C)(c1ccccc1)Oc1cc(C(F)(F)F)ccc1-2 (stereo not shown) [compound 25, 4,6-dimethoxy-N-(4-methyl-4-phenyl-7-(trifluoromethyl)-4H-chromeno[4,3-d]thiazol-2-yl)pyrimidine-5-carboxamide] | < 100 nM
